Data as given in the supplement of paper PMC10307832.

Assays:
Test in all cases: relative viability (nuclei count vs DMSO), 5 days (fraction); higher = more cells survive
GW-2580 + Dasatinib = compound: COC1=CC=C(C=C1)COC2=C(C=C(C=C2)CC3=CN=C(N=C3N)N)OC [GW-2580] + Cc1nc(Nc2ncc(C(=O)Nc3c(C)cccc3Cl)s2)cc(N2CCN(CCO)CC2)n1 [Dasatinib] (partner 0.075 µM)
Method in brief: (§1)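 Medians of duplicate plates are given as relative viability. That measure is the nuclei count in treated wells divided by the count in vehicle wells. Counts were taken on 4× images of lung cancer cell lines in 1536-well plates, 5 days after pin-tool dosing the day after seeding with one drug alone or a fixed anchor-drug dose plus five library-drug doses (not always all listed) in √10 steps.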

GW-2580 + Crizotinib = compound: COC1=CC=C(C=C1)COC2=C(C=C(C=C2)CC3=CN=C(N=C3N)N)OC [GW-2580] + C[C@@H](Oc1cc(-c2cnn(C3CCNCC3)c2)cnc1N)c1c(Cl)ccc(F)c1Cl [Crizotinib] (partner 1 µM)
Method in brief: as §1

Fedratinib + Foretinib = compound: Cc1cnc(Nc2ccc(OCCN3CCCC3)cc2)nc1Nc1cccc(S(=O)(=O)NC(C)(C)C)c1 [Fedratinib] + COc1cc2c(Oc3ccc(NC(=O)C4(C(=O)Nc5ccc(F)cc5)CC4)cc3F)ccnc2cc1OCCCN1CCOCC1 [Foretinib] (partner 0.25 µM)
Method in brief: as §1

GW-2580 + Bortezomib = compound: COC1=CC=C(C=C1)COC2=C(C=C(C=C2)CC3=CN=C(N=C3N)N)OC [GW-2580] + CC(C)C[C@H](NC(=O)[C@H](Cc1ccccc1)NC(=O)c1cnccn1)B(O)O [Bortezomib] (partner 0.002 µM)
Method in brief: as §1

Fedratinib + Trametinib = compound: Cc1cnc(Nc2ccc(OCCN3CCCC3)cc2)nc1Nc1cccc(S(=O)(=O)NC(C)(C)C)c1 [Fedratinib] + CC(=O)Nc1cccc(-n2c(=O)n(C3CC3)c(=O)c3c(Nc4ccc(I)cc4F)n(C)c(=O)c(C)c32)c1 [Trametinib] (partner 0.02 µM)
Method in brief: as §1

Cell Line | relative viability (GW-2580 + Dasatinib; first compound 0.08 µM) | relative viability (GW-2580 + Dasatinib; first compound 0.8 µM) | relative viability (GW-2580 + Dasatinib; first compound 2.53 µM) | relative viability (GW-2580 + Dasatinib; first compound 8 µM) | relative viability (GW-2580 + Crizotinib; first compound 0.08 µM) | relative viability (GW-2580 + Crizotinib; first compound 0.8 µM) | relative viability (GW-2580 + Crizotinib; first compound 2.53 µM) | relative viability (GW-2580 + Crizotinib; first compound 8 µM) | relative viability (Fedratinib + Foretinib; first compound 0.1 µM) | relative viability (Fedratinib + Foretinib; first compound 0.3162 µM) | relative viability (Fedratinib + Foretinib; first compound 1 µM) | relative viability (GW-2580 + Bortezomib; first compound 0.08 µM) | relative viability (GW-2580 + Bortezomib; first compound 0.8 µM) | relative viability (GW-2580 + Bortezomib; first compound 2.53 µM) | relative viability (GW-2580 + Bortezomib; first compound 8 µM) | relative viability (Fedratinib + Trametinib; first compound 0.1 µM) | relative viability (Fedratinib + Trametinib; first compound 0.3162 µM) | relative viability (Fedratinib + Trametinib; first compound 1 µM)
NCI-H322M | 0.247 | 0.24 | 0.263 | 0.253 | 0.982 | 0.969 | 0.994 | 0.862 | 0.946 | 0.95 | 0.596 | 1.29 | 1.4 | 1.31 | 1.43 | 0.439 | 0.481 | 0.508
NCI-H3122 | 0.947 | 1.01 | 0.655 | 0.812 | 0.286 | 0.309 | 0.247 | 0.238 | 0.956 | 0.9 | 0.941 | 1.04 | 0.939 | 1.1 | 1.11 | 0.242 | 0.205 | 0.193
COR-L23 | 0.566 | 0.502 | 0.519 | 0.464 | 0.808 | 0.684 | 0.549 | 0.562 | 0.912 | 0.838 | 0.921 | 1.2 | 1.21 | 0.929 | 1.2 | 0.576 | 0.604 | 0.155
NCI-H2087 | 1.11 | 0.846 | 0.785 | 0.774 | 0.8 | 0.993 | 1 | 0.772 | 0.65 | 1.01 | 1.01 | 0.966 | 1.16 | 0.79 | 0.872 | 0.203 | 0.177 | 0.213
LC-2-ad | 0.715 | 0.771 | 0.737 | 0.55 | 0.484 | 0.527 | 0.462 | 0.459 | 1.02 | 1.01 | 0.784 | 1.05 | 1.08 | 0.922 | 1.08 | 0.898 | 0.904 | 0.933
NCI-H1915 | 0.356 | 0.295 | 0.272 | 0.273 | 0.896 | 1.14 | 1.03 | 0.905 | 1.09 | 1.08 | 1.05 | 1 | 1.11 | 0.959 | 1.05 | 0.307 | 0.28 | 0.275
NCI-H2023 | 0.636 | 0.652 | 0.542 | 0.587 | 0.61 | 0.829 | 0.59 | 0.623 | 0.8 | 0.873 | 0.643 | 1.01 | 1.14 | 0.733 | 0.904 | 0.588 | 0.626 | 0.488
COR-L 105 | 0.314 | 0.373 | 0.28 | 0.342 | 0.782 | 0.827 | 0.787 | 0.677 | 0.866 | 1.03 | 0.676 | 0.829 | 0.99 | 0.67 | 0.797 | 0.39 | 0.442 | 0.422
RERF-LC-KJ | 0.896 | 0.893 | 0.797 | 0.71 | 0.818 | 0.915 | 0.778 | 0.76 | 0.883 | 0.904 | 0.864 | 1.22 | 1.06 | 1.04 | 1.08 | 0.787 | 0.813 | 0.858
LXF-289 | 0.208 | 0.267 | 0.177 | 0.217 | 0.846 | 0.818 | 0.775 | 0.705 | 0.963 | 0.958 | 0.981 | 1 | 1.06 | 0.93 | 0.916 | 0.676 | 0.61 | 0.621
PC-14 | 0.347 | 0.281 | 0.228 | 0.218 | 0.949 | 1.04 | 0.907 | 0.899 | 0.975 | 1.08 | 1 | 0.934 | 1.09 | 0.779 | 0.95 | 0.692 | 0.871 | 0.554
NCI-H650 | 0.468 | 0.538 | 0.396 | 0.424 | 0.834 | 0.663 | 0.668 | 0.594 | 0.943 | 1.01 | 1.01 | 0.807 | 1.06 | 0.658 | 0.845 | 1.04 | 1.04 | 0.869
NCI-H1666 | 0.874 | 0.901 | 0.758 | 0.755 | 1.01 | 0.984 | 1.17 | 0.926 | 0.927 | 0.991 | 0.962 | 0.727 | 1.2 | 0.791 | 0.89 | 1 | 0.824 | 0.861
NCI-H2085 | 0.277 | 0.217 | 0.25 | 0.258 | 0.903 | 0.918 | 0.779 | 0.758 | 0.883 | 0.861 | 0.909 | 1.11 | 1.12 | 1.19 | 1.03 | 0.598 | 0.512 | 0.458
NCI-H1734 | 0.459 | 0.497 | 0.456 | 0.447 | 0.66 | 0.74 | 0.656 | 0.509 | 0.665 | 0.921 | 0.786 | 0.976 | 0.995 | 0.775 | 0.967 | 0.605 | 0.583 | 0.636
NCI-H2126 | 0.599 | 0.736 | 0.627 | 0.522 | 1.06 | 1.06 | 1.01 | 1.04 | 1.07 | 1.06 | 1.08 | 1.14 | 1.24 | 1.03 | 1.14 | 0.493 | 0.582 | 0.541
EMC-BAC-2 | 0.317 | 0.308 | 0.264 | 0.316 | 0.779 | 0.771 | 0.75 | 0.803 | 1 | 1.01 | 1 | 1.11 | 1.16 | 1.02 | 1.05 | 0.931 | 0.939 | 0.978
NCI-H1993 | 0.611 | 0.606 | 0.524 | 0.568 | 0.971 | 0.828 | – | 0.936 | 0.763 | 0.818 | 0.808 | 1.27 | 1.33 | – | 0.995 | 0.547 | 0.419 | 0.421
NCI-H520 | 0.203 | 0.238 | 0.204 | 0.252 | 0.791 | 0.956 | 0.763 | 0.621 | 0.797 | 0.736 | 0.726 | 0.58 | 0.923 | 0.602 | 0.672 | 0.476 | 0.801 | 0.63
NCI-H647 | 0.189 | 0.16 | 0.11 | 0.224 | 1.28 | 1.47 | 1.05 | 0.957 | 1.16 | 1.23 | 1.16 | 1.1 | 0.994 | 0.756 | 1.09 | 0.521 | 0.493 | 0.366
SK-LU-1 | 0.178 | 0.207 | 0.149 | 0.167 | 1 | 1.08 | 0.798 | 1.06 | 0.819 | 0.78 | 0.504 | 0.902 | 1.42 | 0.73 | 1.54 | 0.498 | 0.454 | 0.479
ChaGo-K-1 | 0.663 | 0.552 | 0.605 | 0.587 | 1.08 | 1.21 | 1.18 | 1.07 | 0.811 | 0.923 | 0.899 | 0.996 | 1.09 | 0.989 | 1 | 0.765 | 0.841 | 0.873
NCI-H1650 | 0.339 | 0.399 | 0.326 | 0.296 | 1.06 | 1.29 | 1.36 | 0.919 | – | 1.1 | 0.885 | 0.218 | 0.232 | 0.164 | 0.199 | 0.534 | 0.545 | 0.642
NCI-H2009 | 0.319 | 0.305 | 0.299 | 0.27 | 1.05 | 1.05 | 1.07 | 1.01 | 1.12 | 1.23 | 1.1 | 1.02 | 0.955 | 0.931 | 0.844 | 0.204 | 0.286 | 0.216
LOU-NH91 | 0.555 | 0.719 | 0.517 | 0.553 | 0.731 | 0.75 | 0.753 | 0.728 | 0.917 | 0.956 | 0.875 | 0.522 | 0.534 | 0.468 | 0.46 | 0.753 | 0.781 | 0.752
NCI-H2405 | 0.203 | 0.205 | 0.222 | 0.213 | 0.827 | 0.885 | 0.753 | 0.78 | 1.03 | 1.02 | 1.01 | 1.02 | 1.03 | 0.807 | 0.951 | 0.582 | 0.584 | 0.57
LCLC-97TM1 | 0.891 | 0.866 | 0.899 | 0.821 | 0.554 | – | 0.303 | 0.284 | 1.03 | 0.913 | 0.935 | 0.404 | 1.02 | 0.288 | 0.982 | 0.234 | 0.202 | 0.18
NCI-H596 | 0.625 | 0.543 | 0.7 | 0.688 | 0.966 | 0.985 | 0.912 | 1.15 | 0.881 | 0.78 | 0.762 | 0.938 | 1.06 | 1.23 | 1.01 | 0.739 | 0.804 | 0.755
NCI-H727 | 0.414 | 0.409 | 0.44 | 0.299 | 0.85 | 0.819 | 0.79 | 0.5 | 0.835 | 0.808 | 0.779 | 1.01 | 1.18 | 1.35 | 0.835 | 0.38 | 0.426 | 0.392
